Results as given in US8685974B2 (Bayer CropScience AG, priority 2009, dated 2014).
Where two headings read alike, the source gives them in different places. Marks after values point to notes of the source that are not given here.

Compound | logP (pH2.7) (pH 2.7) | log p (pH 2.7) | also measured
4-[3-(5-Chloro-2-thienyl)-1-isobutyl-1H-pyrazol-4-yl]-N-propylpyridin-2-amine 1-oxide | 1.90 |  | 
4-[5-Bromo-3-(5-chloro-2-thienyl)-1-(4-methoxybenzyl)-1H-pyrazol-4-yl]pyridine and 4-[3-bromo-5-(5-chloro-2-thienyl)-1-(4-methoxybenzyl)-1H-pyrazol-4-yl]pyridine | 3.53 |  | logP (pH2.7), minor isomer (pH 2.7): 3.0
CC(C)Cn1cc(-c2cc[n+]([O-])c(N)c2)c(-c2ccc(Cl)s2)n1 [2-Amino-4-[1-isobutyl-3-(5-chloro-2-thienyl)-1H-pyrazol-4-yl]pyridine N oxide] | 2.39 |  | 
CC(C)Cn1ncc(-c2cc[n+]([O-])c(N)c2)c1-c1ccc(Cl)s1 [2-Amino-4-[1-isobutyl-5-(5-chloro-2-thienyl)-1H-pyrazol-4-yl]pyridine N oxide] | 2.21 |  | 
CC(C)Cn1cc(-c2ccnc(N)c2)c(-c2ccc(Cl)s2)n1 [2-Amino-4-[1-isobutyl-(3/5)-(5-chloro-2-thienyl)-1H-pyrazol-4-yl]pyridine] | 2.04 |  | logP (pH2.7), minor isomer (pH 2.7): 1.93
CC(C)Cn1cc(-c2cc[n+]([O-])c(NCc3ccccc3)c2)c(-c2ccc(Cl)s2)n1 [2-Benzylamino-4-[1-isobutyl-3-(5-chloro-2-thienyl)-1H-pyrazol-4-yl]pyridine N oxide] | 3.65 |  | 
CC(C)Cn1ncc(-c2cc[n+]([O-])c(NCc3ccccc3)c2)c1-c1ccc(Cl)s1 [2-Benzylamino-4-[1-isobutyl-5-(5-chloro-2-thienyl)-1H-pyrazol-4-yl]pyridine N oxide] | 3.48 |  | 
CC(C)Cn1cc(-c2cc[n+]([O-])c(Cl)c2)c(-c2ccc(Cl)s2)n1 [2-Chloro-4-[1-isobutyl-3-(5-chloro-2-thienyl)-1H-pyrazol-4-yl]pyridine-N-oxyde] | 2.82 |  | 
CC(C)Cn1ncc(-c2cc[n+]([O-])c(Cl)c2)c1-c1ccc(Cl)s1 [2-Chloro-4-[1-isobutyl-5-(5-chloro-2-thienyl)-1H-pyrazol-4-yl]pyridine-N-oxyde] | 3.06 |  | 
[O-][n+]1ccc(-c2c[nH]nc2-c2ccc(Cl)s2)cc1Cl [2-Chloro-4-[3-(5-chloro-2-thienyl)-1H-pyrazol-4-yl]pyridine N oxyde] | 1.57 |  | 
C#CCNc1cc(-c2cn(CC(C)C)nc2-c2ccc(Cl)s2)cc[n+]1[O-] [2-Propargylamino-4-[1-isobutyl-3-(5-chloro-2-thienyl)-1H-pyrazol-4-yl]pyridine-N-oxyde] | 2.70 |  | 
C#CCNc1cc(-c2cnn(CC(C)C)c2-c2ccc(Cl)s2)cc[n+]1[O-] [2-Propargylamino-4-[1-isobutyl-5-(5-chloro-2-thienyl)-1H-pyrazol-4-yl]pyridine-N-oxyde] | 2.92 |  | 
FC(F)(F)c1ccc(-c2c(-c3ccncc3)cnn2C2CCCCO2)s1 (stereo not shown) [4-[1-(2-tetrahydropyrannyl)-5-(5-trifluoromethyl-2-thienyl)-1H-pyrazol-4-yl]pyridine] | 1.96 |  | 
CC(C)n1cc(-c2ccncc2)c(-c2cccs2)n1 [4-[1-Isopropyl-(3/5)-(2-thienyl)-1H-pyrazol-4-yl]pyridine] | 1.27 |  | logP (pH2.7), minor isomer (pH 2.7): 1.33
CC(C)n1cc(-c2ccncc2)c(-c2ccc(Br)s2)n1 [4-[1-Isopropyl-(3/5)-(5-bromo-2-thienyl)-1H-pyrazol-4-yl]pyridine] | 1.88 |  | logP (pH2.7), minor isomer (pH 2.7): 1.76
CC(C)Cn1cc(-c2ccncc2)c(-c2cc3sccc3s2)n1 [4-[1-isobutyl-(3/5)-(3-thieno[3,2-b]thiophen-2-yl)-1H-pyrazol-4-yl]pyridine] | 2.07 |  | logP (pH2.7), minor isomer (pH 2.7): 2.02
CC(C)n1cc(-c2ccncc2)c(-c2ccc(C(F)(F)F)s2)n1 [4-[1-isopropyl-(3/5)-(5-trifluoromethyl-2-thienyl)-1H-pyrazol-4-yl]pyridine] | 2.20 |  | logP (pH2.7), minor isomer (pH 2.7): 2.08
CCC(C)n1cc(-c2cc[n+]([O-])cc2)c(-c2ccc(Cl)s2)n1 (stereo not shown) [4-[1-sec-butyl-3-(5-chloro-2-thienyl)-1H-pyrazol-4-yl]pyridine N oxide] | 2.5 |  | 
CCC(C)n1nc(-c2ccc(Cl)s2)c(-c2ccncc2)c1Br (stereo not shown) [4-[5-Bromo-1-secbutyl-(3/5)-(5-chloro-2-thienyl)-1H-pyrazol-4-yl]pyridine] | 3.69 |  | 
CC(C)Nc1nccc(-c2cn(C3CCCC3)nc2-c2ccc(Cl)s2)n1 [4-[(3/5)-(5-Chloro-2-thienyl)-1-cyclopentyl-1H-pyrazol-4-yl]-2-(isopropylamino)pyrimidine] | 3.61 |  | logP (pH2.7), minor isomer (pH 2.7): 3.33
CC(C)n1cc(-c2ccnc(N=C(c3ccccc3)c3ccccc3)c2)c(-c2ccc(Cl)s2)n1 [4-[(3/5)-(5-Chloro-2-thienyl)-1-isopropyl-1H-pyrazol-4-yl]-N-(diphenylmethylene)pyridin-2-amine] | 4.46 |  | logP (pH2.7), minor isomer (pH 2.7): 3.96

Compound | logP (pH2.7) (pH 2.7) | log p (pH 2.7) | also measured
CC(C)n1cc(-c2ccnc(N)c2)c(-c2ccc(Cl)s2)n1 [4-[(3/5)-(5-Chloro-2-thienyl)-1-isopropyl-1H-pyrazol-4-yl]pyridin-2-amine] | 1.78 |  | logP (pH2.7), minor isomer (pH 2.7): 1.72
CC#Cc1c(-c2ccncc2)c(-c2ccc(Cl)s2)nn1C(C)C [4-[(3/5)-(5-Chloro-2-thienyl)-1-isopropyl-5-(prop-1-yn-1-yl)-1H-pyrazol-4-yl]pyridine] | 2.78 |  | logP (pH2.7), minor isomer (pH 2.7): 2.21
CC#Cc1c(-c2ccncc2)c(-c2ccc(Cl)s2)nn1Cc1ccc(OC)cc1 [4-[(3/5)-(5-chloro-2-thienyl)-1-(4-methoxybenzyl)-5-(prop-1-yn-1-yl)-1H-pyrazol-4-yl]pyridine] | 3.11 |  | logP (pH2.7), minor isomer (pH 2.7): 2.61
Clc1sc(-c2n[nH]cc2-c2ccncc2)c(Cl)c1Cl [Example 2] |  | 1.52^[b] | 
CCC(C)n1ncc(-c2ccncc2)c1-c1ccc(Cl)s1 (stereo not shown) [Example 9] |  | 1.91^[b] | 
CC(C)(C)n1ncc(-c2ccncc2)c1-c1ccc(Cl)s1 [Example 10] |  | 1.95^[b] | 
Clc1ccc(-c2c(-c3ccncc3)cnn2C2CCCCC2)s1 [Example 12] |  | 2.26^[b] | 
Clc1ccc(-c2c(-c3ccncc3)cnn2C2CCCC2)s1 [Example 16] |  | 2.13^[b] | 
CC(n1ncc(-c2ccncc2)c1-c1ccc(Cl)s1)C(C)(C)C (stereo not shown) [Example 19] |  | 2.47^[b] | 
Clc1ccc(-c2nn(-c3ccccc3)cc2-c2ccncc2)s1 [Example 22] |  | 2.63^[b] | 
Clc1ccc(-c2c(-c3ccncc3)cnn2-c2ccccc2)s1 [Example 23] |  | 1.88^[b] | 
CC(C)(C)Cn1ncc(-c2ccncc2)c1-c1ccc(Cl)s1 [Example 25] |  | 2.17^[b] | 
CC(C)CCn1cc(-c2ccncn2)c(-c2ccc(Cl)s2)n1 [Example 27] |  | 3.8^[b] | 
CC(C)CC(C)n1ncc(-c2ccncn2)c1-c1ccc(Cl)s1 (stereo not shown) [Example 28] |  | 4.29^[b] | 
CC(C)=CCn1ncc(-c2ccncn2)c1-c1ccc(Cl)s1 [Example 29] |  | 3.44^[b] | 
CC(C)n1ncc(-c2ccncn2)c1-c1ccc(Cl)s1 [Example 30] |  | 2.94^[b] | 
CCC(C)n1ncc(-c2ccncn2)c1-c1ccc(Cl)s1 (stereo not shown) [Example 31] |  | 3.34^[b] | 
CC(C)C(C)n1ncc(-c2ccncn2)c1-c1ccc(Cl)s1 (stereo not shown) [Example 32] |  | 3.8^[b] | 
CC(n1ncc(-c2ccncn2)c1-c1ccc(Cl)s1)C(C)(C)C (stereo not shown) [Example 33] |  | 4.46^[b] | 
CC(C)(C)Cn1ncc(-c2ccncn2)c1-c1ccc(Cl)s1 [Example 34] |  | 3.82^[b] | 
Cc1ccc(-c2[nH]ncc2-c2ccncc2)s1 [Example 35] |  | 0.77^[b] | 

Compound | logP (pH2.7) (pH 2.7) | log p (pH 2.7) | also measured
CC(=O)c1ccc(-c2[nH]ncc2-c2ccncc2)s1 [Example 36] |  | 0.62^[b] | 
CCCCNC(=O)c1ccc(-c2[nH]ncc2-c2ccncc2)s1 [Example 37] |  | 0.0^[b] | 
CC(C)n1ncc(-c2ccncc2)c1-c1ccc(Cl)s1 [Example 39] |  | 1.7^[b] | log p (pH 2.3): 1.63^[a];
Clc1cc(-c2c[nH]nc2-c2ccc(Cl)s2)ccn1 [Example 40] |  |  | log p (pH 2.3): 2.75^[a]
CCC(CC)n1ncc(-c2ccncc2)c1-c1ccc(Cl)s1 [Example 41] |  |  | log p (pH 2.3): 2.08^[a]
Clc1ccc(-c2c(-c3ccncc3)cnn2Cc2ccccc2)s1 [Example 42] |  |  | log p (pH 2.3): 1.94^[a]
Clc1ccc(-c2nn(Cc3ccccc3)cc2-c2ccncc2)s1 [Example 43] |  |  | log p (pH 2.3): 2.35^[a]
Clc1ccc(-c2n[nH]c(Br)c2-c2ccncc2)s1 [Example 44] |  | 1.4^[b] | 
C=CCn1cc(-c2ccncc2)c(-c2ccc(Cl)s2)n1 [Example 48] |  | 1.65^[b] | logP value of the minor isomer (in parenthesis in column Isomer ratio [d]) (pH 2.7): (1.50)
COCCn1cc(-c2ccncc2)c(-c2ccc(Cl)s2)n1 [Example 49] |  | 1.42^[b] | logP value of the minor isomer (in parenthesis in column Isomer ratio [d]) (pH 2.7): (1.29)
N#CCn1cc(-c2ccncc2)c(-c2ccc(Cl)s2)n1 [Example 53] |  | 1.4^[b] | logP value of the minor isomer (in parenthesis in column Isomer ratio [d]) (pH 2.7): (1.10)
[O-][n+]1ccc(-c2c[nH]nc2-c2ccc(Cl)s2)cc1Cl [Example 59] |  |  | log p (pH 7.8): 1.57^[c]
CCCNc1nccc(-c2c[nH]nc2-c2ccc(Cl)s2)n1 [Example 65] |  |  | log p (pH 2.3): 1.75^[a]
Clc1ccc(-c2n[nH]c(C3CC3)c2-c2ccncc2)s1 [Example 67] |  | 1.36^[b] | 
Cc1[nH]nc(-c2ccc(Cl)s2)c1-c1ccncc1 [Example 68] |  | 1.07^[b] | 
COc1nccc(-c2c[nH]nc2-c2ccc(Cl)s2)n1 [Example 69] |  |  | log p (pH 2.3): 2.23^[a]
CC(C)Cn1cc(-c2ccnc(Cl)c2)c(-c2ccc(Cl)s2)n1 [Example 70] |  |  | log p (pH 2.3): 4.85^[a]
CCCNc1cc(-c2c[nH]nc2-c2ccc(Cl)s2)cc[n+]1[O-] [Example 71] |  |  | log p (pH 2.3): 1.9^[a]
CC(C)Cn1ncc(-c2ccnc(Cl)c2)c1-c1ccc(Cl)s1 [Example 72] |  |  | log p (pH 2.3): 4.65^[a]
CC(C)Cn1cc(-c2cc[n+]([O-])c(NCc3ccccc3)c2)c(-c2ccc(Cl)s2)n1 [Example 73] |  |  | log p (pH 2.3): 3.73^[a]
CC(C)Cn1cc(-c2cc[n+]([O-])c(Cl)c2)c(-c2ccc(Cl)s2)n1 [Example 74] |  |  | log p (pH 2.3): 3.04^[a]; logP value of the minor isomer (in parenthesis in column Isomer ratio [d]) (pH 2.3): (2.82)
